The values that follow come from patent publication US10005767B2, “Compositions and methods for inhibition of the JAK pathway” (Rigel Pharmaceuticals, Inc., priority 2009, dated 2018).

pIC50: −log10 of the molar value. Counter-ions that a name gives are not always drawn. Like-named read-outs stand apart in the source and are kept apart here.

What is called pIC50 is the negative decadic logarithm of the IC50, by convention in mol/L.

This assay deals with human primary T-cells, IL-2 stimulated proliferation (JAK-1 and JAK-3 dependent; reported as JAK3 activity). Kind of assay: Human primary T-cell proliferation stimulated by IL-2 (Example 3). The note with it: tested under conditions described in Example 3 (IL-2 stimulated human primary T-cell proliferation), read-out: ability to inhibit JAK3 activity, IC50 range (Table V). It counts as cell-based. The gist of the method:
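Peripheral-blood human T-cells pre-activated via TCR/CD28, IL-2-starved overnight, then cultured 72 h at 37 °C with compound in Yssel's medium containing IL-2 (80 U/mL in cell suspension). Proliferation read as viable-cell ATP by CellTiter-Glo luminescence; reduction versus control taken as JAK pathway inhibition.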

Regarding `COc1cc(Nc2ncc(C)c(Nc3ccc4oc(=O)[nH]c4c3)n2)ccc1-c1cccnc1` [Compound I-506, 5-(2-(3-methoxy-4-(pyridin-3-yl)phenylamino)-5-methylpyrimidin-4-ylamino)benzo[d]oxazol-2(3H)-one formate salt], the pIC50 (Homo sapiens, T-cell) is over 6.30. Regarding `Cc1cnc(Nc2cccc(S(C)(=O)=O)c2)nc1Nc1ccc2oc(=O)[nH]c2c1` [Compound I-16], the pIC50 is over 6.30. Regarding `CCN1CC2CN(c3ncc(Nc4ncc(C)c(Nc5ccc6oc(=O)[nH]c6c5)n4)cc3Cl)CC2C1` (stereo not shown) [II-118, N2-[3-chloro-2-(3-ethyl-3,7-diazabicyclo[3.3.0]octan-7-yl)pyridin-5-yl]-5-methyl-N4-(2-oxo-2,3-dihydro-1,3-benzoxazol-5-yl)-2,4-pyrimidinediamine], the pIC50 (Homo sapiens, T-cell) was over 6.30.

For the compound `COc1cc(C)cc(Nc2ncc(C)c(Nc3cc(C)c4oc(=O)[nH]c4c3)n2)c1` [Compound I-428, 5-(2-(3-methoxy-5-methylphenylamino)-5-methylpyrimidin-4-ylamino)-7-methylbenzo[d]oxazol-2(3H)-one], the negative-log IC50 (pIC50) (Homo sapiens, T-cell) is over 6.30. For the compound `CC(=O)N1Cc2ccc(Nc3ncc(C)c(Nc4ccc5oc(=O)[nH]c5c4)n3)cc2C1` [III-12, 5-[2-(2-Acetyl-2,3-dihydro-1H-isoindol-5-ylamino)-5-methyl-pyrimidin-4-ylamino]-3H-benzooxazol-2-one], the pIC50 (Homo sapiens, T-cell) is over 6.30.

On to `Cc1cnc(Nc2ccc3c(c2)CN(S(C)(=O)=O)C3)nc1Nc1ccc2oc(=O)[nH]c2c1` [III-14, 5-[2-(2-Methanesulfonyl-2,3-dihydro-1H-isoindol-5-ylamino)-5-methyl-pyrimidin-4-ylamino]-3H-benzooxazol-2-one], for which the pIC50 (Homo sapiens, T-cell) is over 6.30.

Turning to `Cc1cnc(Nc2ccc(N3CCN4CCCCC4C3)nc2)nc1Nc1ccc2oc(=O)[nH]c2c1` (stereo not shown) [II-128, N2-[2-(1,4-diazabicylco[4.4.0]decan-4-yl)pyridin-5-yl]-5-methyl-N4-(2-oxo-2,3-dihydro-1,3-benzoxazol-5-yl)-2,4-pyrimidinediamine], the pIC50 is over 6.30. Turning to `COCCOc1ccc(Nc2ncc(C)c(Nc3ccc4oc(=O)[nH]c4c3)n2)cn1` [II-145, N2-[2-(2-methoxy)ethoxypyridin-5-yl]-5-methyl-N4-(2-oxo-2,3-dihydro-1,3-benzoxazol-5-yl)-2,4-pyrimidinediamine], the pIC50 is over 6.30. For `Cc1cnc(Nc2ccc(N3CCN(C(=O)OC(C)(C)C)[C@@H](C)C3)nc2)nc1Nc1ccc2oc(=O)[nH]c2c1` [II-41, (S)-2-Methyl-4-{5-[5-methyl-4-(2-oxo-2,3-dihydro-benzooxazol-5-ylamino)-pyrimidin-2-ylamino]-pyridin-2-yl}-piperazine-1-carboxylic acid tert-butyl ester], the pIC50 (Homo sapiens, T-cell) was over 6.30. For `Cc1cnc(Nc2ccc3c(c2)NC(=O)CCC3)nc1Nc1ccc2oc(=O)[nH]c2c1` [IV-23, 5-(5-methyl-2-(2-oxo-2,3,4,5-tetrahydro-1H-benzo[b]azepin-8-ylamino)pyrimidin-4-ylamino)benzo[d]oxazol-2(3H)-one], the pIC50 (Homo sapiens, T-cell) is over 6.30.

On to `CN1CCN(c2ccc(Nc3ncc(F)c(Nc4ccc5[nH]c(=O)[nH]c5c4)n3)cn2)CC1` [II-16, N4-(benzimidazolin-2-on-5-yl)-N2-[2-(4-methylpiperazin-1-yl)pyridin-5-yl]-5-fluoropyrimidine-2,4-diamine], for which the pIC50 was over 6.30. Consider `Cc1cnc(Nc2ccc3[nH]c(=O)[nH]c3c2)nc1Nc1ccc2oc(=O)[nH]c2c1` [IV-29, 5-(5-methyl-2-(2-oxo-2,3-dihydro-1H-benzo[d]imidazol-5-ylamino)pyrimidin-4-ylamino)benzo[d]oxazol-2(3H)-one], for which the pIC50 (Homo sapiens, T-cell) was over 6.30. Regarding `Cc1ccc(Nc2ncc(C)c(Nc3ccc4oc(=O)[nH]c4c3)n2)nc1` [IV-52, 5-(5-methyl-2-(5-methylpyridin-2-ylamino)pyrimidin-4-ylamino)benzo[d]oxazol-2(3H)-one], under “Homo sapiens, T-cell”, the negative-log IC50 (pIC50) was 5.30 to 6.30.
